From patent US20030228279A1, “Compositions and methods for viral delivery” (Corixa Corporation, priority 2001, published 2003)
“Also recorded” adds a separate entry of the source. Read-outs that look alike come from different tables or passages of the source.

Legend:
[1] = cited from earlier work
[2] = in vivo; cited from earlier work
sheep red blood cells = details: cited from earlier work
Aqueous solubility = assay type: physicochemical; details: at physiologic pH
From the text: Aqueous solubility is a desirable characteristic of adjuvant-active saponins and aids in vaccine formulation and efficacy (Kensil, 1996). Unlike oil-based emulsions and mineral salt adjuvants which can denature antigens and prevent protective effects, saponins are non-denaturing adjuvants due to their high aqueous solubility. Their high water solubility also obviates extensive homogenation procedures required for emulsion-type adjuvants, permitting simple mixing of aqueous adjuvant and antigen solutions prior to immunization. […] Water-soluble O-glycosides of simple hydroxybenzaldehydes (e.g., helicin (31)) not only occur in nature but readily form stable Schiff-base derivatives as well (see, The Merck Index, 12th ed.; Merck & Co., Inc.: Whitehouse Station, N.J., 1996) The synthetically simpler succinate (VI) is also useful since succinic acid constitutes a simple 4-carbon isostere for the glucuronic acid moiety and has been used to impart triterpenes with aqueous solubility (see, Gottfried and Baxendale, U.S. Pat. No. 3,070,623, 1962).

red blood cells = details: cited from earlier work

QS-21
critical micellar concentration in phosphate buffered saline [1]: ~0.02 % (w/v) | critical micellar concentration in water [1]: about 0.03 % (w/v) | adjuvant activity [2]: potent adjuvants | concentrations causing hemolysis of sheep red blood cells (sheep red blood cells; sheep red blood cells): ≥ 25000 ng/mL

QS-18
critical micellar concentration in phosphate buffered saline [1]: 0.02 % (w/v) | critical micellar concentration in water [1]: 0.04 % (w/v) | adjuvant activity [2]: potent adjuvants | concentrations causing hemolysis of sheep red blood cells (sheep red blood cells): ≥ 25000 ng/mL

O=Cc1cc(OCc2ccc(C(=O)O)cc2)ccc1O [isotucaresol]
aqueous solubility (Aqueous solubility): sparingly soluble

QS-7
critical micellar concentration in phosphate buffered saline [1]: ~0.07% | critical micellar concentration in water [1]: approximately 0.06% | adjuvant activity [2]: potent adjuvants; also recorded: potent inducer of cell-mediated and humoral responses | concentrations causing no detectable hemolysis of sheep red blood cells (sheep red blood cells): ≤ 200000 ng/mL | hemolytic activity towards red blood cells (red blood cells): non-hemolytic

C[C@@H]1CC[C@@]2(OC1)O[C@H]1[C@@H](O)[C@H]3[C@@H]4CC[C@H]5C[C@@H](O[C@@H]6O[C@H](CO)[C@H](O[C@@H]7O[C@H](CO)[C@@H](O)[C@H](O[C@@H]8OC[C@@H](O)[C@H](O)[C@H]8O)[C@H]7O[C@@H]7O[C@H](CO)[C@H](O)[C@H](O[C@@H]8O[C@H](CO)[C@@H](O)[C@H](O)[C@H]8O)[C@H]7O)[C@H](O)[C@H]6O)[C@H](O)C[C@]5(C)[C@H]4CC[C@]3(C)[C@H]1[C@@H]2C [digitonin]
adjuvant activity [2]: adjuvant-inactive | hemolytic activity towards red blood cells (red blood cells): highly hemolytic

QS-17
critical micellar concentration in phosphate buffered saline [1]: 0.03 % (w/v) | critical micellar concentration in water [1]: 0.06 % (w/v) | adjuvant activity [2]: potent adjuvants | concentrations causing hemolysis of sheep red blood cells (sheep red blood cells): ≥ 25000 ng/mL
